Experimental data from patent US5045302A, “Ligands and cationic complexes thereof with technetium-99m” (priority 1988, dated 1991).
Where two headings read alike, the source gives them in different places.

Experiments:
[1] = guinea pig, in vivo
[2] = Plasma binding study (PD10 column), human plasma; assay type: in vitro ADME
Protocol: 1 ml sample of guinea pig or human plasma or saline (control) were added to 2 ml Eppendorf tubes. To these were then added 100 ul aliquots of the ^99m Tc preparation being studied. Mixing was performed by inverting the tubes several times. A 50 ul sample was then taken for counting and the remainder of the sample (1050 ul) was quantitatively transferred to the top of the PD10 column. The sample was allowed to enter the column matrix and then washed in with 1.5 mls saline. Initially a 2.5 ml aliquot was collected for counting, (dead volume) subsequently 0.5 ml aliquots were collected until a total volume of 16 mls had been used to elute the column. […] Collected fractions were counted in a γ well counter and a graph plotted of percentage recovery was calculated from initial preloading sample and cumulative counts.

[3] = rat, in vivo
[4] = Rat biodistribution of Tc-99m complexes

CCOCC[P+]1(CCOCC)CC[P+](CCOCC)(CCOCC)[Tc-3]12([Cl])([Cl])[P+](CCOCC)(CCOCC)CC[P+]2(CCOCC)CCOCC
blood and liver clearance [1]: good | heart uptake [1]: good heart uptake | wash-out from heart [1]: washes out of the respective hearts | Blood ([1]; 2 min): 3.50 % Injected dose/organ | Heart ([1]; 2 min): 1.89 % Injected dose/organ | Heart/Blood Counts/Gram Ratio ([1]; 2 min): 12.72 | Heart/Liver Counts/Gram Ratio ([1]; 2 min): 2.13 | Heart/Muscle Counts/Gram Ratio ([1]; 2 min): 4.48 | Kidney + Urine ([1]; 2 min): 6.98 % Injected dose/organ | Liver ([1]; 2 min): 13.74 % Injected dose/organ | Liver + GI ([1]; 2 min): 18.72 % Injected dose/organ | Lung ([1]; 2 min): 3.11 % Injected dose/organ | Muscle ([1]; 2 min): 61.65 % Injected dose/organ | Blood ([1]; 60 min): 0.58 % Injected dose/organ | Heart ([1]; 60 min): 0.13 % Injected dose/organ | Heart/Blood Counts/Gram Ratio ([1]; 60 min): 5.35 | Heart/Liver Counts/Gram Ratio ([1]; 60 min): 0.72 | Heart/Muscle Counts/Gram Ratio ([1]; 60 min): 1.13 | Kidney + Urine ([1]; 60 min): 3.20 % Injected dose/organ | Liver ([1]; 60 min): 3.16 % Injected dose/organ | Liver + GI ([1]; 60 min): 62.38 % Injected dose/organ | Lung ([1]; 60 min): 0.30 % Injected dose/organ | Muscle ([1]; 60 min): 15.16 % Injected dose/organ | percent recovery of Tc99m activity ([2]; human, plasma): 93.8% | binding to / interaction with human plasma ([2]; in words): possible slight interaction | blood and liver clearance [3]: good | heart uptake [3]: good heart uptake | wash-out from heart [3]: washes out of the respective hearts | Blood ([3]; 2 min): 5.24 % Injected dose/organ | Heart ([3]; 2 min): 1.51 % Injected dose/organ | Heart/Blood Counts/Gram Ratio ([3]; 2 min): 3.90 | Heart/Liver Counts/Gram Ratio ([3]; 2 min): 0.64 | Heart/Muscle Counts/Gram Ratio ([3]; 2 min): 4.68 | Kidney + Urine ([3]; 2 min): 4.48 % Injected dose/organ | Liver ([3]; 2 min): 28.87 % Injected dose/organ | Liver + GI ([3]; 2 min): 41.13 % Injected dose/organ | Lung ([3]; 2 min): 1.45 % Injected dose/organ | Muscle ([3]; 2 min): 34.92 % Injected dose/organ | Blood ([3]; 60 min): 0.71 % Injected dose/organ | Heart ([3]; 60 min): 0.16 % Injected dose/organ | Heart/Blood Counts/Gram Ratio ([3]; 60 min): 3.09 | Heart/Liver Counts/Gram Ratio ([3]; 60 min): 0.46 | Heart/Muscle Counts/Gram Ratio ([3]; 60 min): 1.41 | Kidney + Urine ([3]; 60 min): 4.95 % Injected dose/organ | Liver ([3]; 60 min): 4.78 % Injected dose/organ | Liver + GI ([3]; 60 min): 61.34 % Injected dose/organ | Lung ([3]; 60 min): 0.47 % Injected dose/organ | Muscle ([3]; 60 min): 11.68 % Injected dose/organ

CCOC(CCP(CCC(OCC)OCC)CCP(CCC(OCC)OCC)CCC(OCC)OCC)OCC [Compound 20]
Blood ([4]; 2 min p.i.): 7.14 % Injected dose/organ | Heart ([4]; 2 min p.i.): 1.01 % Injected dose/organ | Heart/Blood Counts/Gram Ratio ([4]; 2 min p.i.): 1.95 | Heart/Liver Counts/Gram Ratio ([4]; 2 min p.i.): 0.50 | Liver ([4]; 2 min p.i.): 24.50 % Injected dose/organ | Blood ([4]; 60 min p.i.): 1.52 % Injected dose/organ | Heart ([4]; 60 min p.i.): 0.81 % Injected dose/organ | Heart/Blood Counts/Gram Ratio ([4]; 60 min p.i.): 7.9 | Heart/Liver Counts/Gram Ratio ([4]; 60 min p.i.): 0.69 | Liver ([4]; 60 min p.i.): 14.90 % Injected dose/organ

CCCOCCP(CCOC)CCP(CCOC)CCOCCC (centres unmarked) [Compound 29]
Blood ([4]; 2 min p.i.): 8.75 % Injected dose/organ | Heart ([4]; 2 min p.i.): 1.23 % Injected dose/organ | Heart/Blood Counts/Gram Ratio ([4]; 2 min p.i.): 2.26 | Heart/Liver Counts/Gram Ratio ([4]; 2 min p.i.): 0.95 | Liver ([4]; 2 min p.i.): 18.6 % Injected dose/organ | Blood ([4]; 60 min p.i.): 1.64 % Injected dose/organ | Heart ([4]; 60 min p.i.): 1.15 % Injected dose/organ | Heart/Blood Counts/Gram Ratio ([4]; 60 min p.i.): 11.5 | Heart/Liver Counts/Gram Ratio ([4]; 60 min p.i.): 1.40 | Liver ([4]; 60 min p.i.): 11.5 % Injected dose/organ

C1OCC(CP(CCP(CC2COCO2)CC2COCO2)CC2COCO2)O1 (centres unmarked) [Compound 21]
Blood ([4]; 2 min p.i.): 18.6 % Injected dose/organ | Heart ([4]; 2 min p.i.): 0.37 % Injected dose/organ | Heart/Blood Counts/Gram Ratio ([4]; 2 min p.i.): 0.33 | Heart/Liver Counts/Gram Ratio ([4]; 2 min p.i.): 0.58 | Liver ([4]; 2 min p.i.): 9.83 % Injected dose/organ | Blood ([4]; 60 min p.i.): 1.14 % Injected dose/organ | Heart ([4]; 60 min p.i.): 0.04 % Injected dose/organ | Heart/Blood Counts/Gram Ratio ([4]; 60 min p.i.): 0.5 | Heart/Liver Counts/Gram Ratio ([4]; 60 min p.i.): 0.26 | Liver ([4]; 60 min p.i.): 1.95 % Injected dose/organ

CCOCCP(CCOCC)CCP(CCOCC)CCOCC [Compound 1, (EtOC2 H4)2 P--C2 H4 --P(C2 H4 OEt)2]
Blood ([4]; 2 min p.i.): 2.25 % Injected dose/organ | Heart ([4]; 2 min p.i.): 1.66 % Injected dose/organ | Heart/Blood Counts/Gram Ratio ([4]; 2 min p.i.): 10.5 | Heart/Liver Counts/Gram Ratio ([4]; 2 min p.i.): 1.52 | Liver ([4]; 2 min p.i.): 14.1 % Injected dose/organ | Blood ([4]; 60 min p.i.): 0.28 % Injected dose/organ | Heart ([4]; 60 min p.i.): 1.68 % Injected dose/organ | Heart/Blood Counts/Gram Ratio ([4]; 60 min p.i.): 86.4 | Heart/Liver Counts/Gram Ratio ([4]; 60 min p.i.): 14.4 | Liver ([4]; 60 min p.i.): 1.62 % Injected dose/organ

CCOC(C)CP(CCP(CC(C)OCC)CC(C)OCC)CC(C)OCC (centres unmarked) [Compound 13]
Blood ([4]; 2 min p.i.): 7.17 % Injected dose/organ | Heart ([4]; 2 min p.i.): 1.21 % Injected dose/organ | Heart/Blood Counts/Gram Ratio ([4]; 2 min p.i.): 2.54 | Heart/Liver Counts/Gram Ratio ([4]; 2 min p.i.): 0.70 | Liver ([4]; 2 min p.i.): 22.0 % Injected dose/organ | Blood ([4]; 60 min p.i.): 1.77 % Injected dose/organ | Heart ([4]; 60 min p.i.): 0.96 % Injected dose/organ | Heart/Blood Counts/Gram Ratio ([4]; 60 min p.i.): 7.9 | Heart/Liver Counts/Gram Ratio ([4]; 60 min p.i.): 1.25 | Liver ([4]; 60 min p.i.): 10.6 % Injected dose/organ

CCOCCP(CCCP(CCOCC)CCOCC)CCOCC [Compound 34]
Blood ([4]; 2 min p.i.): 19.5 % Injected dose/organ | Heart ([4]; 2 min p.i.): 0.41 % Injected dose/organ | Heart/Blood Counts/Gram Ratio ([4]; 2 min p.i.): 0.34 | Heart/Liver Counts/Gram Ratio ([4]; 2 min p.i.): 0.22 | Liver ([4]; 2 min p.i.): 29.7 % Injected dose/organ | Blood ([4]; 60 min p.i.): 4.56 % Injected dose/organ | Heart ([4]; 60 min p.i.): 0.16 % Injected dose/organ | Heart/Blood Counts/Gram Ratio ([4]; 60 min p.i.): 0.52 | Heart/Liver Counts/Gram Ratio ([4]; 60 min p.i.): 0.21 | Liver ([4]; 60 min p.i.): 10.9 % Injected dose/organ

CCOCCP(CCOCCF)CCP(CCOCC)CCOCCF (centres unmarked) [Compound 32]
Blood ([4]; 2 min p.i.): 5.85 % Injected dose/organ | Heart ([4]; 2 min p.i.): 0.85 % Injected dose/organ | Heart/Blood Counts/Gram Ratio ([4]; 2 min p.i.): 2.31 | Heart/Liver Counts/Gram Ratio ([4]; 2 min p.i.): 1.27 | Liver ([4]; 2 min p.i.): 10.8 % Injected dose/organ | Blood ([4]; 60 min p.i.): 0.38 % Injected dose/organ | Heart ([4]; 60 min p.i.): 0.81 % Injected dose/organ | Heart/Blood Counts/Gram Ratio ([4]; 60 min p.i.): 33.2 | Heart/Liver Counts/Gram Ratio ([4]; 60 min p.i.): 7.46 | Liver ([4]; 60 min p.i.): 1.78 % Injected dose/organ

CCC(CP(CCP(CC(CC)OC)CC(CC)OC)CC(CC)OC)OC (centres unmarked) [Compound 12]
Blood ([4]; 2 min p.i.): 11.7 % Injected dose/organ | Heart ([4]; 2 min p.i.): 0.70 % Injected dose/organ | Heart/Blood Counts/Gram Ratio ([4]; 2 min p.i.): 1.04 | Heart/Liver Counts/Gram Ratio ([4]; 2 min p.i.): 0.39 | Liver ([4]; 2 min p.i.): 25.2 % Injected dose/organ | Blood ([4]; 60 min p.i.): 1.63 % Injected dose/organ | Heart ([4]; 60 min p.i.): 0.48 % Injected dose/organ | Heart/Blood Counts/Gram Ratio ([4]; 60 min p.i.): 4.7 | Heart/Liver Counts/Gram Ratio ([4]; 60 min p.i.): 0.63 | Liver ([4]; 60 min p.i.): 9.72 % Injected dose/organ

CCOCCP(CCOCC)c1ccccc1P(CCOCC)CCOCC [Compound 37]
Blood ([4]; 2 min p.i.): 12.4 % Injected dose/organ | Heart ([4]; 2 min p.i.): 0.82 % Injected dose/organ | Heart/Blood Counts/Gram Ratio ([4]; 2 min p.i.): 0.99 | Heart/Liver Counts/Gram Ratio ([4]; 2 min p.i.): 0.35 | Liver ([4]; 2 min p.i.): 29.7 % Injected dose/organ | Blood ([4]; 60 min p.i.): 3.25 % Injected dose/organ | Heart ([4]; 60 min p.i.): 0.54 % Injected dose/organ | Heart/Blood Counts/Gram Ratio ([4]; 60 min p.i.): 2.62 | Heart/Liver Counts/Gram Ratio ([4]; 60 min p.i.): 0.63 | Liver ([4]; 60 min p.i.): 12.0 % Injected dose/organ

CCOCC(COCC)CP(CCP(CC(COCC)COCC)CC(COCC)COCC)CC(COCC)COCC [Compound 18]
Blood ([4]; 2 min p.i.): 24.2 % Injected dose/organ | Heart ([4]; 2 min p.i.): 0.58 % Injected dose/organ | Heart/Blood Counts/Gram Ratio ([4]; 2 min p.i.): 0.37 | Heart/Liver Counts/Gram Ratio ([4]; 2 min p.i.): 0.24 | Liver ([4]; 2 min p.i.): 35.1 % Injected dose/organ | Blood ([4]; 60 min p.i.): 5.78 % Injected dose/organ | Heart ([4]; 60 min p.i.): 0.41 % Injected dose/organ | Heart/Blood Counts/Gram Ratio ([4]; 60 min p.i.): 1.0 | Heart/Liver Counts/Gram Ratio ([4]; 60 min p.i.): 0.14 | Liver ([4]; 60 min p.i.): 36.0 % Injected dose/organ

COCC(COC)CP(CCP(CC(COC)COC)CC(COC)COC)CC(COC)COC [Compound 17]
Blood ([4]; 2 min p.i.): 5.86 % Injected dose/organ | Heart ([4]; 2 min p.i.): 1.14 % Injected dose/organ | Heart/Blood Counts/Gram Ratio ([4]; 2 min p.i.): 2.99 | Heart/Liver Counts/Gram Ratio ([4]; 2 min p.i.): 0.92 | Liver ([4]; 2 min p.i.): 17.1 % Injected dose/organ | Blood ([4]; 60 min p.i.): 1.03 % Injected dose/organ | Heart ([4]; 60 min p.i.): 0.86 % Injected dose/organ | Heart/Blood Counts/Gram Ratio ([4]; 60 min p.i.): 13.9 | Heart/Liver Counts/Gram Ratio ([4]; 60 min p.i.): 1.59 | Liver ([4]; 60 min p.i.): 7.88 % Injected dose/organ
